Measurements reported in PMC11413854, “Reversible Control of Native GluN2B-Containing NMDA Receptors with Visible Light” (ACS Chemical Neuroscience, 2024).
“Also recorded” adds a separate entry of the source. Where two headings read alike, the source gives them in different places.

How the values were obtained:
GluN1/GluN2B NMDARs = conditions: cited from earlier work; for Ki or IC50: Sup. Fig. 2G, Ki or IC50 not specified
[1] = test system: cultured cortical neurons at DIV 14; experiment: NMDA excitotoxicity test, neuronal survival by MTT; assay type: cell-based, mouse; conditions: for neuronal survival: 5 µM inhibitor + 100 µM NMDA + 10 µM glycine; for % of survival, Mean: compound 5µM with NMDA 100µM, MTT A(540 nm) normalized to control (100) and NMDA alone (0)
From the text: We first investigated whether OptoNAM-3 could be used in the context of a patho-physiological process related to GluN1/GluN2B receptors. Overactivation of NMDARs induced by tonic exposure to glutamate or NMDA is well-known to trigger neuronal death.[6] GluN1/GluN2B receptors are thought to be the major player of this neurotoxicity, and GluN1/GluN2B antagonists have proven to be potent neuroprotectants in vitro and in vivo.[5],[15] To test the neuroprotective activity of OptoNAM-3 and its photodependence of action, we performed a protocol of excitotoxicity based on exposure to NMDA (100 μM) of cultured cortical neurons at DIV 14,[15] in the presence of OptoNAM-3. […] OptoNAM-3 in the dark, at a concentration of 5 μM, induced, like ifenprodil, an ∼50% increase in cell survival (Figure S4). […] OptoNAM-3 is therefore able to promote cell survival in neuron cultures in a photodependent manner.
Mice were housed in the IBENS rodent central facility duly accredited by the French Ministry of Agriculture. All experiments were performed in compliance with French and European regulations on care and protection of laboratory animals (EU Directive 2010/63, French Law 2013–118, February 6, 2013), and were approved by local ethics committees and by the French Ministry of Research and Innovation (authorization numbers #05137.02, APAFIS #28867-2020121814485893). Dissociated cultures of cortical neurons were prepared from mouse embryos at E18 as described previously.[84] After removing meninges, cortices were placed in ice-cold HBSS solution. Cell dissociation was performed individually for cortices of each embryo. Cortices were incubated in 2.5% trypsin at 37 °C for 7 min, rinsed three times with 37 °C phosphate buffer saline, and finally suspended in plating medium (Neurobasal Medium, supplemented with 0.5 mM L-glutamine, 1% B27 supplement, and penicillin/streptomycin). The neurons were further dissociated by trituration, and cells were plated on poly-D-lysine coated coverslips in 24-well culture dishes at a density of 3 × 10^5 cells per well for the excitotoxicity test and that of 1 × 10^5 cells per well for patch clamp experiments. Cultures were incubated at 37 °C in a humidified atmosphere of 5% CO2. Cells were fed by changing 1/2 medium to fresh Neurobasal medium every 4 days. For the excitotoxicity experiments, after 5 days in vitro, growth of non-neuronal cells was halted by a 24 h exposure to FDX ([…] 5-fluoro-2′-deoxyuridine). The cultures were used for experiments after 6 to 14 days in vitro (DIV6–8 for patch clamp experiments and DIV14 for excitotoxicity tests).
Excitotoxicity tests were performed 14 days after the culturing step as described in ref[15]. Just before the experiments, the neuronal medium was changed and the neurons incubated in the external patch recording solution (see above). Two replicates of 24 well plates containing cultured cortical neurons were exposed to the same 4 conditions, in which the following compounds were added to the medium: (1) glycine (10 μM) alone (control); (2) glycine (10 μM) + NMDA (100 μM); (3) glycine (10 μM) + NMDA (100 μM) + 5 μM ifenprodil; and (4) glycine (10 μM) + NMDA (100 μM) + 5 μM trans-OptoNAM-3 (dark). One of the two plates was exposed to UV light (Jena analytic US, UVP Hand-held UV lamp UVGL-58, power ∼1 mW) for 2 min. The two plates were then put back in the 37 °C incubator for 10 min. Agonist exposure was terminated by washing out the exposure solution with conditioned Neurobasal medium, prior to returning the dishes to the incubator for 24 h before assessment of neuronal death.
Overall neuronal cell death was determined 24 h after NMDA exposure by the MTT test. Mitochondrial and cytosolic dehydrogenases of living cells reduce the yellow tetrazolium salt (MTT) to produce a purple formazan dye that can be detected spectrophotometrically.[85] […]

[2] = biological target: T1, GluN1/GluN2B NMDA receptors (UniProt P35439+Q01097); experiment: TEVC electrophysiology on Xenopus oocytes expressing wt GluN1/GluN2B NMDARs; assay type: cell-based, rat GluN1, mouse GluN2B; conditions: theoretical dose-response curve of a pure cis population calculated from 365 and 350 nm PSS
T1 construct: expressed in transfected cells; host or cells: Xenopus laevis oocytes (nuclear cDNA injection)
From the text: The activity of OptoNAM-3 was functionally monitored by electrophysiology on Xenopus oocytes (see Methods). To assess the light-dependent effect, we tested the activities of the dark PSS (mostly trans) and the UV PSS (mostly cis, see above) separately. For each concentration, we prepared a solution divided into two samples: one in which the compound was kept in the dark for the duration of the experiment (dark PSS state); and the other that was preilluminated with either 350 or 365 nm light (350 or 365 nm PSS) and then kept away from the light for the duration of the experiment in order to avoid photoisomerization of the compounds by ambient light (see Methods). […] We generated dose–response curves of OptoNAM-3 dark and UV PSS on wild-type (wt) GluN1/GluN2B NMDA receptors (Figure 3A) in the presence of saturating concentrations of agonists (100 μM glutamate and glycine).
We used cDNA coding for rat GluN1–1a (named GluN1 herein) (GenBank: U08261.1), rat GluN2A (GenBank: D13211.1), mouse GluN2B (GenBank: D10651.2), rat GluA1 flop (GenBank: M36418.2), and rat Myc-GluA2(Q)-flip (GenBank: AF164344.1) cloned into pcDNA3-based expression plasmids. GluK2 (GenBank: Z11548.1) corresponds to the fully RNA-edited version.[80] The GluN2B-ΔNTD construct is from ref[45] and GluN2B–N615K is from ref[81]. Single mutants GluN2B-Q110G and GluN1-L135H were from ref[19]. The GluA2 cDNA contains a Myc tag ([…]) fused between the signal peptide and the N-terminus sequences, and the GluA2 subunit is […] for its Q/R/N site (GluA2(Q)) to allow permeation of homomeric GluA2 receptors.[2] cDNAs coding for rat GluN2C (GenBank: M91563.1) and GluN2D subunits (GenBank: L31611.1) were in prK5 plasmids.
Oocytes from Xenopus laevis were used for heterologous expression of recombinant NMDA receptors studied using a two-electrode voltage clamp (TEVC). Female Xenopus laevis were housed and ovary bags harvested according to the European Union guidelines (husbandry authorizations #C75–05–31 and #D75–05–31; project authorizations #05137.02; and Apafis #28867–2020121814485893). Fragments of ovary bags were also purchased from the “Centre de Ressources Biologiques Xenopes” (now TEFOR, Paris Saclay, France) and from the European Xenopus Resource Center (EXRC, Portsmouth, UK). Xenopus laevis oocytes were harvested and prepared as previously described in ref[82].
Expression of recombinant NMDA receptors was obtained by oocyte nuclear coinjection of 37 nL of a mixture of cDNAs (at 30 ng/μL) coding for GluN1–1a and various GluN2 subunits (ratio 1:1). The protocol in ref[43] was followed for the expression of GluN1/GluN2A/GluN2B triheteromers. The oocytes were transferred in 96-well plates filled with Barth solution (in mM: 88 NaCl, 1 KCl, 0.33 Ca(NO3)2, 0.41 CaCl2, 0.82 MgSO4, 2.4 NaHCO3, and 7.5 HEPES, pH adjusted to 7.3 with NaOH), supplemented with gentamicin ([…]) and 50 μM APV, a selective NMDA receptor antagonist. Plates were then stored at 18 °C for 24 h for GluN1/GluN2A expression and for 48––72 h for the expression of GluN1/Glu2B, GluN1/GluN2A/GluN2B, and mutants.
TEVC recordings were performed 1–3 days following injection. TEVC recordings were performed using an Oocyte Clamp amplifier OC-725 (Warner Instruments) and computer-controlled via a 1440A Digidata (Molecular Devices). Currents were sampled at 100 Hz and low-pass-filtered at 20 Hz using an 8-pole Bessel filter (900 Series, Frequency Devices Inc.).

T1 sequence (Q01097 27-1482, other chains not shown): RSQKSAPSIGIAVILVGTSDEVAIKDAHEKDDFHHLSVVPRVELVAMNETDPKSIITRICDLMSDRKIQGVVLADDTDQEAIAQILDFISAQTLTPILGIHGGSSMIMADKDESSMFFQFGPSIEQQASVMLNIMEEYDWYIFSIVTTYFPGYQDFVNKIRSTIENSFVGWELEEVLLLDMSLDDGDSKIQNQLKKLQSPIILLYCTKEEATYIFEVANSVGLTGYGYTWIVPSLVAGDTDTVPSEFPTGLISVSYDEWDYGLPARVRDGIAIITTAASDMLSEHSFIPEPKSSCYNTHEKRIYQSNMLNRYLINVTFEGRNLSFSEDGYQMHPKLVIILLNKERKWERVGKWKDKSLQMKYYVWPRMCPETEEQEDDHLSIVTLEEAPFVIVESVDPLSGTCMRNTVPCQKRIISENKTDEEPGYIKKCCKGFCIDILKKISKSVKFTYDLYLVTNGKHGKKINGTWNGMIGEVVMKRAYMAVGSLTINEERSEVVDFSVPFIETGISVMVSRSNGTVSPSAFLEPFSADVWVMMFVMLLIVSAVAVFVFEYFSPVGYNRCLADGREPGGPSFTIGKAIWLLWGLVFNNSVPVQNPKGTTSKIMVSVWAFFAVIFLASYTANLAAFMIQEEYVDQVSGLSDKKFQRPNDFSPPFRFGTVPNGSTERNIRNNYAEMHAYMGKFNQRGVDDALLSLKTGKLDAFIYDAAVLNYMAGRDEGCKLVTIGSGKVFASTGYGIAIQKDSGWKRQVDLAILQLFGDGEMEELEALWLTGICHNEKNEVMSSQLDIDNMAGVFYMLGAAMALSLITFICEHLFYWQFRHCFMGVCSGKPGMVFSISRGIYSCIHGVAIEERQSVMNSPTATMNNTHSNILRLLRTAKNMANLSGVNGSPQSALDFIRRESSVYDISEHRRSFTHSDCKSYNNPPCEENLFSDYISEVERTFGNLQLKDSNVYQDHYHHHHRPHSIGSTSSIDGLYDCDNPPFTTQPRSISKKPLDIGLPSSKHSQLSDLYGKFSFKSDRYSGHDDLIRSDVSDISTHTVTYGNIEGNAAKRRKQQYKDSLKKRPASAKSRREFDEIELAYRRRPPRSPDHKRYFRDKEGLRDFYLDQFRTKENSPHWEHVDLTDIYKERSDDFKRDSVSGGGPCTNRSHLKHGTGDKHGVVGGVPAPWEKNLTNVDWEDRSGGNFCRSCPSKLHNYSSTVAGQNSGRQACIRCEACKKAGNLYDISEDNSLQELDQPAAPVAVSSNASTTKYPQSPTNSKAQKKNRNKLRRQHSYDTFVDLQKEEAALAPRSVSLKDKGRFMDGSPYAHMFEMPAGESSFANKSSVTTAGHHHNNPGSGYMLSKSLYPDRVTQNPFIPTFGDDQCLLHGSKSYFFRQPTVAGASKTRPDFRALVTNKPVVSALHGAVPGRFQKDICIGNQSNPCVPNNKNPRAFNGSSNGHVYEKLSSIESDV

For Nc1ccnc(N2CCc3ccccc3C2)c1 [parent compound 1], the Ki (GluN1/GluN2B NMDARs; ref 3 (SI), read-out: Parent compound Ki) is given as 3 nM.

For Nc1ccnc(N2CCc3ccccc3C2)c1 [9n = Compound 1], the Ki or IC50 (GluN1/GluN2B NMDARs; ref: ref. 39) is listed as 3 nM.

In the case of CC(C(O)c1ccc(O)cc1)N1CCC(Cc2ccccc2)CC1 (stereo not drawn) [ifenprodil], the neuronal survival ([1]; 2 min UV (365 nm), normalized to control and NMDA) is reported as “not affected; also recorded: No photodependent effect”, the neuronal survival ([1]; dark, normalized to control (100%) and NMDA (0%)) is reported as 60% and the “% of survival, Mean” value ([1]; Dark) is reported as 59.345%. For the same molecule, the “% of survival, Mean” value ([1]; UV) was 59.393%.

In the case of c1ccc(/N=N\c2ccc(CCNc3ccncc3)cc2)cc1 [cis-OptoNAM-3], the “activity of the cis isomer on GluN1/GluN2B NMDARs” value [2] is reported as “inactive”.

For Cc1cc(N)nc(/C=C/c2ccccc2)c1 [parent compound 2], the Ki or IC50 (GluN1/GluN2B NMDARs; ref: ref. 40) is listed as 10 nM and the IC50 (GluN1/GluN2B NMDARs; ref 2,6 (SI), read-out: Parent compound IC50) is listed as 10 nM.
